The source of these data is PubChem BioAssay (NCI).

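A five-concentration, 48-hour dose response in 96-well plates underlies each endpoint, interpolated linearly between surrounding concentrations. The concentration for 50% growth inhibition is given as GI50. TGI: concentration producing complete growth inhibition.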

Common to all, as to experiment: inhibition of tumour cell growth, NCI panel, 48 h
In assay [1] the test system is OVCAR-8 ovarian.
In assay [2] the test system is RPMI-8226 leukemia.
Assay [3] relates to CCRF-CEM leukemia.
For assay [4], the system named is COLO 205 colon.
The test system of assay [5] is CAKI-1 renal.
Assay [6] deals with RXF 393 renal.
Assay [7] deals with SR leukemia.
For assay [8], the system named is HOP-62 NSCLC.
Assay [9] deals with A498 renal.
Assay [10] deals with DU-145 prostate.

Regarding `[N-]=[N+]=Nc1ccccc1-[n+]1noc([O-])c1Br`, the TGI in assay [1], in [2], in assay [3], in assay [4], in assay [5] and in [6] was above 100 µM each time. Also, the TGI in assay [7] and in assay [8] was above 100 µM throughout.
Take `COCC1C(=O)c2cc3c(cc2C12C=CC1(C=C2)OCCO1)OCO3` (configuration not stated): the TGI in [1] turned out to be 13.1 µM; in assay [2], 4.1 µM; in assay [3], 4.38 µM; in assay [4] it was 38 µM; in assay [5], 29.8 µM; in assay [6], 20.9 µM. Also, the TGI in [7] was 6.8 µM; in assay [8], 36.2 µM.
For `CNc1nnnn1C1OC(CO)C(O)C1O` (configuration not stated), the TGI in assay [1], in assay [2], in assay [3], in assay [9], in [4] and in assay [5] was above 100 µM in each case. Also, the TGI in [6] and in [8] was above 100 µM throughout.
With `COC(=O)CSc1ccccc1`, the TGI in [1], in [2], in [3], in [9], in [4] and in assay [5] was above 100 µM throughout. In addition, the TGI in assay [6] and in assay [8] was above 100 µM in each case.
As to `O=C(N/N=C/c1coc2ccc(Cl)cc2c1=O)c1ccncc1`, the GI50 is 35.6 µM in assay [1]; 16.6 µM in assay [2]; 28.1 µM in assay [3]; above 100 µM in assay [4]; 74.1 µM in assay [5]; 65.9 µM in assay [6]. In addition, the GI50 in [10] is above 100 µM; in [8] it was 39.7 µM. Besides, the TGI in assay [1], in [2], in assay [3], in [4], in assay [5] and in assay [6] was above 100 µM throughout. The TGI in assay [10] and in assay [8] was above 100 µM in each case.
Turning to `N#Cc1ccc(/C=N\N2C(=O)c3ccccc3C2=O)cc1`, the TGI in assay [1], in assay [2], in [3], in [9], in [5] and in [6] was above 100 µM each time. For the same compound, the TGI in assay [7] and in assay [8] was above 100 µM throughout.
As for `Cn1c(=O)nc2n(-c3ccc(F)cc3)c3ccccc3nc-2c1=O`, the TGI in assay [1] came to 67.4 µM; in assay [2], 70.9 µM; in [3], 63.7 µM; in assay [9] it was 93.4 µM; in [4], 22.1 µM; in assay [5], 73.3 µM. Moreover, the values for the TGI in [6] and in assay [8] were 79.8 µM and above 100 µM, respectively.
For `COc1cc(C2c3cc4c(cc3[C@H](NC(=O)c3cccs3)C3COC(=O)[C@H]23)OCO4)cc(OC)c1OC` (some centres not stated), the TGI amounted to 94.4 µM in assay [1]; 19.3 µM in assay [2]; 0.0481 µM in [9]; 0.0308 µM in assay [4]; 0.0543 µM in [6]; 17.7 µM in assay [7].
`COc1ccc2nc3cc(Cl)ccc3c(NCCC(=O)OCC(O)C(O)C(O[C@H](C)C(=O)NC(C)C(=O)NC(CCC(N)=O)C(=O)OCc3ccccc3)C(C=O)NC(C)=O)c2c1` (some centres not stated): the TGI in assay [1] is 30.5 µM; in [3], above 100 µM; in [9] it was 37.7 µM; in [4] it was 32.6 µM; in [5], 40.9 µM; in [7], 23.6 µM. The TGI in [8] came to 33.9 µM.
For the compound `CC(C)(C)C(=O)OCOP(=O)(OCOC(=O)C(C)(C)C)C1CCCN(OC(=O)c2ccccc2)C1=O` (configuration not stated), the GI50 was 0.543 µM in assay [1]; 0.605 µM in assay [2]; 0.643 µM in assay [3]; 0.283 µM in assay [9]; 2.39 µM in assay [4]; 0.545 µM in assay [6]. The GI50 in [10] is 2.62 µM; in assay [8] it was 1.9 µM. The TGI is 6.95 µM in assay [1]; 3.51 µM in [2]; 29.7 µM in [3]; 0.832 µM in [9]; 15.2 µM in [4]; 4.8 µM in assay [6]. Also, the TGI in assay [10] was above 100 µM; in assay [8] it was 18.7 µM.
Take `COc1ccc(C(=O)C(c2ccc(OC)cc2)C2C(=O)Oc3ccccc32)cc1` (configuration not stated): the GI50 in assay [1], in assay [2], in assay [3], in [9], in [4] and in [6] was above 100 µM each time. Further, in [7], the GI50 is above 100 µM. In addition, the TGI in [1], in [2], in [3], in assay [9], in [4] and in [6] was above 100 µM throughout. In assay [7], this compound displayed a TGI above 100 µM.
`COc1ccc(C(=O)/C(=N/Nc2ccccc2)c2ccc(OC)cc2)cc1`: the TGI in assay [1], in assay [2], in assay [4], in assay [5] and in assay [6] was above 100 µM throughout.
As for `COc1ccc(NC(=O)CC/C(CC(=O)c2ccccc2Cl)=N\Nc2nnc(C)n2N)cc1`, the TGI in [1], in [3], in assay [4], in assay [5], in assay [6] and in assay [7] was above 100 µM in each case.
As to `O=C(CC1(O)C(=O)Nc2c(Cl)cccc21)c1ccccc1` (configuration not stated), the TGI in assay [1], in assay [2], in [3], in [4], in [5] and in assay [6] was above 100 µM throughout. The compound also registered a TGI in assay [8] above 100 µM.
As for `CN(C)c1ccc(/C=C/C(=O)c2ccccc2)cc1Br`, the TGI in assay [1] is 57.1 µM; in [2] it was 44.4 µM; in [3], 62.7 µM; in assay [9], above 100 µM; in [4], 34.5 µM; in assay [5], 32.9 µM. Also, in assay [8], the TGI was above 100 µM.
